In experiment [1] the target is Tyrosine-protein kinase Mer (Homo sapiens) (UniProt Q12866). As to the kind of experiment: Inhibition of N-terminal GST-tagged human MER cytoplasmic domain (528 to 999 residues) expressed in baculovirus-infected Sf21 cells using CSKtide as substrate at 1 uM in presence of ATP by Mobility shift assay.
Experiment [2] addresses Mitogen-activated protein kinase 12 (Homo sapiens) (UniProt P53778). As to the kind of experiment: Inhibition of N-terminal GST-fused full length human p38gamma (1 to 367 residues) expressed in Escherichia coli expression system using Modified Erktide as substrate at 1 uM in presence of ATP by Mobility shift assay.
The target in experiment [3] is Rho-associated protein kinase 2 (Homo sapiens) (UniProt O75116). As to the kind of experiment: Inhibition of N-terminal GST-fused human ROCK2 catalytic domain (1 to 553 residues) expressed in baculovirus expression system using LIMKtide as substrate at 1 uM in presence of ATP by Mobility shift assay.
Experiment [4] concerns the target Serine/threonine-protein kinase Sgk3 (Homo sapiens) (UniProt Q96BR1). As to the kind of experiment: Inhibition of N-terminal GST-fused truncated human SGK3 (119 to 496 residues) expressed in baculovirus expression system using SGKtide as substrate at 1 uM in presence of ATP by Mobility shift assay.
Experiment [5] deals with Serine/threonine-protein kinase PLK3 (Homo sapiens) (UniProt Q9H4B4). As to the kind of experiment: Inhibition of N-terminal GST-fused human PLK3 catalytic domain (58 to 340 residues) expressed in baculovirus expression system using CDC25ctide as substrate at 1 uM in presence of ATP by Mobility shift assay.
The target in experiment [6] is Inhibitor of nuclear factor kappa-B kinase subunit alpha (Homo sapiens) (UniProt O15111). As to the kind of experiment: Inhibition of N-terminal GST-fused full length human IKK-alpha (1 to 745 residues) expressed in baculovirus expression system using IkBalpha peptide as substrate at 1 uM in presence of ATP by IMAP assay.
In experiment [7] the target is RAC-alpha serine/threonine-protein kinase (Homo sapiens) (UniProt P31749). As to the kind of experiment: Inhibition of N-terminal GST-tagged human AKT1 catalytic domain (104 to 480 residues) co-expressed with His-tagged PDK1 (1 to 556 residues) in baculovirus-infected Sf21 cells using Crosstide as substrate at 1 uM in presence of ATP by Mobility shift assay.
Experiment [8] concerns the target Serine/threonine-protein kinase 38 (Homo sapiens) (UniProt Q15208). As to the kind of experiment: Inhibition of N-terminal GST-fused full length human NDR1 (1 to 465 residues) expressed in baculovirus expression system using SGKtide as substrate at 1 uM in presence of ATP by Mobility shift assay.
For experiment [9], the target named is RAC-gamma serine/threonine-protein kinase (Homo sapiens) (UniProt Q9Y243). As to the kind of experiment: Inhibition of N-terminal GST-tagged human AKT3 catalytic domain (108 to 479 residues) co-expressed with His-tagged PDK1 (1 to 556 residues) in baculovirus-infected Sf21 cells using Crosstide as substrate at 1 uM in presence of ATP by Mobility shift assay.

For experiment [10], the target named is Protein kinase C delta type (Homo sapiens) (UniProt Q05655). As to the kind of experiment: Inhibition of N-terminal GST-fused human full length PKC-delta (1 to 676 residues ) expressed in baculovirus expression system using PKC peptide as substrate at 1 uM in presence of ATP by Mobility shift assay.
Experiment [11] addresses Proto-oncogene tyrosine-protein kinase Src (Homo sapiens) (UniProt P12931). As to the kind of experiment: Inhibition of N-terminal GST-tagged full length human SRC (1 to 536 residues) expressed in baculovirus-infected Sf21 cells using Srctide as substrate at 1 uM in presence of ATP by Mobility shift assay.
In experiment [12] the target is Calcium/calmodulin-dependent protein kinase type 1D (Homo sapiens) (UniProt Q8IU85). As to the kind of experiment: Inhibition of N-terminal GST-tagged full length human CAMK1d (1 to 357 residues) expressed in baculovirus-infected Sf21 cells using Synapsin peptide as substrate at 1 uM in presence of ATP by Mobility shift assay.
Experiment [13] has as its target CDC7/DBF4 (Cell division cycle 7-related protein kinase/Activator of S phase kinase) (Homo sapiens) (UniProt Q9UBU7+O00311). As to the kind of experiment: Inhibition of N-terminal GST-tagged full length human CDC7 (1 to 574 residues)/N-terminal GST-tagged ASK (1 to 674 residues) expressed in baculovirus-infected Sf21 cells using MCM2 peptide as substrate at 1 uM in presence of ATP by Mobility shift assay.

The nature of experiment [14]: Inhibition of N-terminal GST-tagged human TRKB cytoplasmic domain (456 to 825 residues) expressed in baculovirus-infected Sf21 cells using Srctide as substrate at 1 uM in presence of ATP by Mobility shift assay. The note with it: condition cancer.
In experiment [15] the target is Tyrosine-protein kinase ABL1 (Homo sapiens) (UniProt P00519). As to the kind of experiment: Inhibition of N-terminal His-tagged wild type human ABL (2 to 1130 residues) expressed in baculovirus-infected Sf21 cells using ABLtide as substrate at 1 uM in presence of ATP by Mobility shift assay.
Experiment [16] addresses Mitogen-activated protein kinase 10 (Homo sapiens) (UniProt P53779). As to the kind of experiment: Inhibition of N-terminal GST-fused full length human JNK3 (1 to 426 residues) expressed in Escherichia coli expression system using Modified ERKtide as substrate at 1 uM in presence of ATP by Mobility shift assay.
Experiment [17] addresses Vascular endothelial growth factor receptor 3 (Homo sapiens) (UniProt P35916). As to the kind of experiment: Inhibition of N-terminal GST-fused human FLT4 cytoplasmic domain (798 to 1298 residues) expressed in baculovirus-infected Sf21 cells using CSKtide as substrate at 1 uM in presence of ATP by Mobility shift assay.
The target of experiment [18] is Homeodomain-interacting protein kinase 4 (Homo sapiens) (UniProt Q8NE63). As to the kind of experiment: Inhibition of N-terminal GST-fused full length human HIPK4 (1 to 616 residues) expressed in baculovirus expression system using DYRKtide-F as substrate at 1 uM in presence of ATP by Mobility shift assay.
Experiment [19] addresses Serine/threonine-protein kinase Nek1 (Homo sapiens) (UniProt Q96PY6). As to the kind of experiment: Inhibition of N-terminal GST-fused human NEK1 catalytic domain (1 to 505 residues) expressed in baculovirus expression system using CDK7 peptide as substrate at 1 uM in presence of ATP by Mobility shift assay.
The target in experiment [20] is Ephrin type-A receptor 6 (Homo sapiens) (UniProt Q9UF33). As to the kind of experiment: Inhibition of N-terminal GST-fused human EPHA6 cytoplasmic domain (683 to 1130 residues) expressed in baculovirus-infected Sf21 cells using Blk/Lyntide as substrate at 1 uM in presence of ATP by Mobility shift assay.
Experiment [21] deals with Tyrosine-protein kinase Srms (Homo sapiens) (UniProt Q9H3Y6). As to the kind of experiment: Inhibition of N-terminal GST-tagged human SRM catalytic domain (215 to 488 residues) expressed in baculovirus-infected Sf21 cells using Blk/Lyntide as substrate at 1 uM in presence of ATP by Mobility shift assay.
The target of experiment [22] is Ribosomal protein S6 kinase beta-2 (Homo sapiens) (UniProt Q9UBS0). As to the kind of experiment: Inhibition of N-terminal GST-fused full length human p70S6Kbeta (1 to 482 residues) expressed in baculovirus expression system using S6K2 peptide as substrate at 1 uM in presence of ATP by Mobility shift assay.

In the case of `Cc1cc(C)c(CNC(=O)c2cc(Br)c3c(c2C)O[C@@](C)([C@H]2CC[C@H](N(C)C)CC2)O3)c(=O)[nH]1`, the inhibition was -1.5% in experiment [1]; -1.6% in [2]; 2.2% in experiment [3]; -4.5% in [4]; -1.3% in experiment [5]; -0.6% in [6]. The inhibition is -2.9% in experiment [7]; -2.6% in experiment [8]; -6.2% in [9]; 1.5% in [10]; -4.9% in experiment [11]; -3.6% in experiment [12]. Besides, the inhibition in experiment [13] was -5.5%; in [15], -5.7%; in experiment [16] it was -2.9%; in experiment [17], -1.5%; in experiment [18] it was 3%; in experiment [19], -7%. Besides, the inhibition in [20] is -3.8%; in experiment [21] it was -0.1%; in experiment [22], 2.1%. Besides, in experiment [14], the inhibition at 1 µM is -7.7%.
Take `Cc1cc(C)c(CNC(=O)c2cc(Cl)c3c(c2C)O[C@@](C)([C@H]2CC[C@H](N(C)C)CC2)O3)c(=O)[nH]1` [VALEMETOSTAT]: the inhibition is -1.6% in [1]; -3% in experiment [2]; 3.3% in [3]; 0.3% in [4]; -7.8% in [5]; 11.5% in experiment [6]. The inhibition in [7] was -2.9%; in [8], -0.5%; in [9], -5.3%; in experiment [10] it was 2.7%; in [11] it was -7.6%; in experiment [12], -3.5%. In addition, the inhibition in experiment [13] is -6.7%; in experiment [15] it was -8%; in experiment [16], -5.8%; in [17] it was -1.9%; in experiment [18] it was -3%; in experiment [19] it was -7%. Further, the inhibition in [20] came out at 0.1%; in experiment [21], 0.6%; in experiment [22], 5.2%. Moreover, the inhibition at 1 µM in experiment [14] is -8.7%.

The inhibition is the drop in the measured response relative to a control, in per cent.

The values are drawn from ChEMBL document CHEMBL5647694, “Novel orally bioavailable EZH1/2 dual inhibitors with greater antitumor efficacy than an EZH2 selective inhibitor” (Cancer Sci, 2017).
